As usually defined, the melting point is the temperature of the solid-liquid transition. The term CC50 denotes the concentration at which the toxic effect on the cells reaches its halfway point. The IC50 is the point on the concentration scale where inhibition reaches its midpoint.

The test system of one data set is HBeAg. Kind of data set: Inhibition of HBeAg secretion (ELISA) in HepG2.2.15 cells. Conditions: for HBeAg IC50: ELISA, nine day treatment, mean ± S.D. (n = 3), '-' = inhibition ratio less than 50% in the test concentration range; for inhibition of HBV in vitro assay: in vitro assay (Table S1); for IC50: Hepatitis B virus, HepG2.2.15, 216 h, read-out: HBeAg IC50; for HBeAg SI: SI (selectivity index) = CC50/IC50. The class given is cell-based, hepatitis B virus (HBV). How it is done:
HepG2.2.15 cells were kindly provided by the Chinese Academy of Medical Sciences (Beijing, China), derived from human hepatoma cell line G2. […] The compounds were diluted to the desired concentrations in culture medium. […] Every three days in a nine day period, supernatant of each well was replaced with compound-containing fresh medium.
The levels of HBeAg and HBsAg in the supernatant of the cells were measured using ELISA assay following the manufacturer’s protocol (Shanghai Kehua Bio-engineering Co., Ltd., Shanghai, China).
(In an ELISA, binding on a coated surface is turned into a signal by an enzyme label.)

Data set [1] in a line: Cytotoxicity by MTT assay in HepG2.2.15 cells. The class given is cell-based. Conditions: human, 50% cytotoxicity concentration in HepG 2.2.15 cells, mean ± S.D. (n = 3). On the procedure: (§1) HepG2.2.15 cells were kindly provided by the Chinese Academy of Medical Sciences (Beijing, China), derived from human hepatoma cell line G2. These cells were cultured in Dulbecco’s Modified Eagle’s Medium (DMEM), supplemented with 10% fetal bovine serum (FBS), 1.5 g/L of sodium bicarbonate, 10 mL/L of penicillin, and streptomycin, respectively, and 200 mg/L of G418 at 37 °C under 5% carbon dioxide in a 95–98% humidity. The compounds were diluted to the desired concentrations in culture medium. Before treated with various concentrations of compounds, cells were seeded at a density of 1 × 10^5 cells/mL in 96-well plates and incubated for 24 h at 37 °C. Every three days in a nine day period, supernatant of each well was replaced with compound-containing fresh medium.
The cytotoxicity activity of the synthesized compounds was determined by MTT assay. After refreshing the supernatant, 20 μL MTT (5 mg/mL) was added to each well, which was further cultured for 4 h at 37 °C. Then the supernatant of each well was carefully removed, formazan crystals were dissolved in […] of DMSO and the absorbance at 450 nm was recorded. Cytotoxicity of these compounds was expressed as the concentration of compound required to kill 50% (CC50) of the HepG2.2.15 cells.

Another data set has as its system HBsAg. Nature of the data set: Inhibition of HBsAg secretion (ELISA) in HepG2.2.15 cells. The class given is cell-based, hepatitis B virus (HBV). The following applies: for IC50: Hepatitis B virus, HepG2.2.15, 216 h, read-out: HBsAg IC50; for HBsAg SI: SI (selectivity index) = CC50/IC50. How it is done:
as §1
The levels of HBeAg and HBsAg in the supernatant of the cells were measured using ELISA assay following the manufacturer’s protocol (Shanghai Kehua Bio-engineering Co., Ltd., Shanghai, China). The synthesized compounds were expressed as the concentration that achieved 50% inhibition (IC50) to the secretion of HBeAg and HBsAg.

[2] abbreviates: HepG2.2.15 cells, result in words.

In turn, `CC(CCC(=O)O)C1CCC2C3C(=O)CC4CC(=NO)CCC4(C)C3CC(=O)C12C` (stereo not drawn) [Compound 0-1, (E)-3-(hydroxyimino)-7,12-dioxolcholanic acid] came in with a melting point of 250.4 to 252.4 °C. The “HBeAg IC50” value in the data set with HBeAg (HepG2.2.15 cells) is recorded as “- (The inhibition ratio less than 50% in the test concentration range)”. In addition, the half-maximal cytotoxic concentration (CC50) at 9 days in data set [1] is > 1000 µM.
As for `C[C@H](CCC(=O)O)[C@H]1CC[C@H]2[C@@H]3[C@H](O)C[C@@H]4C[C@H](O)CC[C@]4(C)[C@H]3C[C@H](O)[C@]12C` [Cholic acid], in the data set on HBeAg (result in words), the “inhibition of HBV in vitro assay” value is “did not exhibit inhibition”.
Consider `C[C@H](CCC(=O)OCc1ccccc1)[C@H]1CC[C@H]2[C@@H]3C(=O)CC4C/C(=N/OCc5ccccc5)CC[C@]4(C)[C@H]3CC(=O)[C@]12C` (stereo partly drawn) [Compound 2a-2, Benzyl (E)-3-((benzyloxy)imino)-7,12-dioxocholanoate], for which the melting point lay in the range of 135.3 to 137.3 °C. Further, in the data set with HBeAg, the IC50 came to 249 ± 47.6 µM and the “HBeAg SI” value amounted to 0.85. In data set [1], the 50% cytotoxic concentration (CC50) at 9 days was 211 ± 17.1 µM.
`C[C@H](CCC(=O)OCc1ccc2c(c1)OCO2)[C@H]1CC[C@H]2[C@@H]3C(=O)CC4C/C(=N/OCc5ccccc5)CC[C@]4(C)[C@H]3CC(=O)[C@]12C` (stereo partly drawn) [Compound 2b-2, 3,4-Methylenedioxybenzyl (E)-3-((benzyloxy)imino)-7,12-dioxocholanoate] had a melting point of 124.3 to 126.3 °C. Moreover, in the data set with HBeAg (HepG2.2.15 cells), the “HBeAg IC50” value is listed as “- (The inhibition ratio less than 50% in the test concentration range)”. The compound also displayed a 50% cytotoxic concentration (CC50) at 9 days in data set [1] of 728 ± 45.2 µM.
As to `CC(CCC(=O)O)C1CCC2C3C(=O)CC4CC(=NOCc5ccccc5)CCC4(C)C3CC(=O)C12C` (stereo not drawn) [Compound 0-2, (E)-3-((benzyloxy)imino)-7,12-dioxolcholanic acid], the melting point lay within 198.5 to 200.5 °C. In the data set on HBeAg, the IC50 stood at 119 ± 1.86 µM and the “HBeAg SI” value stood at 3.95. This compound also gave a half-maximal cytotoxic concentration (CC50) at 9 days in data set [1] of 470 ± 6.35 µM.
Take `CON=C1CCC2(C)C(CC(=O)C3C2CC(=O)C2(C)C(C(C)CCC(=O)O)CCC32)C1` (stereo not drawn) [Compound 0-3, (E)-3-(methoxyimino)-7,12-dioxolcholanic acid]: the melting point lay in the range of 197.2 to 199.2 °C. For the same compound, the “HBeAg IC50” value in the data set on HBeAg (HepG2.2.15 cells) is listed as “- (The inhibition ratio less than 50% in the test concentration range)”. Moreover, in data set [1], the 50% cytotoxic concentration (CC50) at 9 days is > 1000 µM.
`CO/N=C1\CC[C@@]2(C)C(CC(=O)[C@H]3[C@@H]4CC[C@H]([C@H](C)CCC(=O)OCc5ccco5)[C@@]4(C)C(=O)C[C@@H]32)C1` (stereo partly drawn) [Compound 2c-3, Furan-2-ylmethyl (E)-3-(methoxyimino)-7,12-dioxocholanoate] gave a melting point of 122.3 to 124.3 °C. Moreover, in the data set on HBsAg, the IC50 is 181 ± 52.8 µM and the “HBsAg SI” value worked out at 0.50. Besides, in the data set with HBeAg, the IC50 came out at 105 ± 22.2 µM and the “HBeAg SI” value is reported as 0.86. The midpoint of cytotoxicity in data set [1], the CC50 at 9 days, lay at 90.9 ± 15.6 µM.
As to `CO/N=C1\CC[C@@]2(C)C(CC(=O)[C@H]3[C@@H]4CC[C@H]([C@H](C)CCC(=O)OCc5ccc6c(c5)OCO6)[C@@]4(C)C(=O)C[C@@H]32)C1` (stereo partly drawn) [Compound 2b-3, 3,4-Methylenedioxybenzyl (E)-3-(methoxyimino)-7,12-dioxocholanoate], the melting point lay within 118.7 to 120.7 °C. Also, in the data set with HBeAg, the IC50 was 49.4 ± 12.8 µM and the “HBeAg SI” value is recorded as 11.03. Moreover, in data set [1], the cytotoxic concentration (CC50) at 9 days is 545 ± 28.9 µM.
With `CO/N=C1\CC[C@@]2(C)[C@H](CC(=O)[C@@H]3[C@@H]2CC(=O)[C@]2(C)[C@@H]([C@H](C)CCC(=O)OCc4ccccc4)CC[C@@H]32)C1` [Compound 2a-3, Benzyl (E)-3-(methoxyimino)-7,12-dioxolcholanoate], the melting point was 132.6 to 134.6 °C. For the same compound, in the data set on HBeAg, the IC50 stood at 188 ± 9.51 µM and the “HBeAg SI” value is recorded as 0.90. The compound further showed a half-maximal cytotoxic concentration (CC50) at 9 days in data set [1] of 169 ± 5.75 µM.
For the compound `C=C1[C@H](CO)[C@@H](O)C[C@@H]1n1cnc2c(=O)[nH]c(N)nc21` [ETV, Entecavir, reference compound], in the data set on HBsAg, the IC50 amounted to 161 ± 35.9 µM and the “HBsAg SI” value worked out at 3.72. Besides, the half-maximal inhibitory concentration (IC50) in the data set with HBeAg is 247 ± 50 µM. In data set [1], this compound returned a CC50 at 9 days of 600 ± 23.4 µM.
As for `C[C@H](CCC(=O)OCc1ccccc1)[C@H]1CC[C@H]2[C@@H]3C(=O)CC4C/C(=N/O)CC[C@]4(C)[C@H]3CC(=O)[C@]12C` (stereo partly drawn) [Compound 2a-1, Benzyl (E)-3-(hydroxyimino)-7,12-dioxocholanoate], the melting point lay in the range of 199.2 to 201.2 °C. In addition, in the data set with HBsAg, the IC50 came out at 630 ± 35 µM and the “HBsAg SI” value is listed as 0.60. Moreover, in the data set on HBeAg, the IC50 was 229 ± 12.8 µM and the “HBeAg SI” value is 1.65. The compound also showed a CC50 at 9 days in data set [1] of 378 ± 25.3 µM.
Compound `C[C@H](CCC(=O)OCc1ccco1)[C@H]1CC[C@H]2[C@@H]3C(=O)CC4C/C(=N/O)CC[C@]4(C)[C@H]3CC(=O)[C@]12C` (stereo partly drawn) [Compound 2c-1, Furan-2-ylmethyl (E)-3-(hydroxyimino)-7,12-dioxocholanoate] gave a melting point of 193.2 to 195.2 °C. In the data set on HBsAg, the half-maximal inhibitory concentration (IC50) worked out at 300 ± 15.3 µM and the “HBsAg SI” value is listed as 0.52. Also, in the data set on HBeAg, the IC50 is 111 ± 28.3 µM and the “HBeAg SI” value turned out to be 1.40. This compound also returned a CC50 at 9 days in data set [1] of 155 ± 30.8 µM.
Turning to `C[C@H](CCC(=O)OCc1ccco1)[C@H]1CC[C@H]2[C@@H]3C(=O)CC4C/C(=N/OCc5ccccc5)CC[C@]4(C)[C@H]3CC(=O)[C@]12C` (stereo partly drawn) [Compound 2c-2, Furan-2-ylmethyl (E)-3-((benzyloxy)imino)-7,12-dioxocholanoate], the melting point is 131.5 to 133.5 °C. For the same compound, in the data set on HBsAg, the IC50 came out at 464 ± 20.1 µM and the “HBsAg SI” value came to 0.22. Further, in the data set on HBeAg, the IC50 turned out to be 151 ± 32.1 µM and the “HBeAg SI” value is listed as 0.67. The same compound yielded a CC50 at 9 days in data set [1] of 101 ± 10.7 µM.
Regarding `C[C@H](CCC(=O)OCc1ccc2c(c1)OCO2)[C@H]1CC[C@H]2[C@@H]3C(=O)CC4C/C(=N/O)CC[C@]4(C)[C@H]3CC(=O)[C@]12C` (stereo partly drawn) [Compound 2b-1, 3,4-Methylenedioxybenzyl (E)-3-(hydroxyimino)-7,12-dioxocholanoate], the melting point lay in the range of 182.5 to 184.5 °C. For the same compound, in the data set on HBeAg, the half-maximal inhibitory concentration (IC50) amounted to 96.6 ± 29 µM and the “HBeAg SI” value is 10.35. In data set [1], the cytotoxic concentration (CC50) at 9 days was > 1000 µM.
Turning to `C[C@H](CCC(=O)O)[C@H]1CC[C@H]2[C@@H]3C(=O)C[C@@H]4CC(=O)CC[C@]4(C)[C@H]3CC(=O)[C@]12C` [DHCA, Dehydrocholic acid], the “activity against the secretion of HBsAg” value in the data set on HBsAg (setting [2]) is on record as “no activity”. For the same compound, the “HBeAg IC50” value in the data set with HBeAg (HepG2.2.15 cells) is “- (The inhibition ratio less than 50% in the test concentration range)”. For the same compound, the “activity against the secretion of HBeAg” value in the data set with HBeAg (setting [2]) is “no activity”. Also, in the data set with HBeAg (result in words), the “inhibition of HBV in vitro assay” value is reported as “did not exhibit inhibition”. For the same compound, the CC50 at 9 days in data set [1] is > 1000 µM.

These data come from publication PMC7435646, “Design, Synthesis and Bioactive Evaluation of Oxime Derivatives of Dehydrocholic Acid as Anti-Hepatitis B Virus Agents” (Molecules, 2020).
